According to DBAASP:
Converted amounts (≈) assume the structure as drawn. Each block holds one compound with its values, some of them ahead of it.

Legend:
Experiment in all cases: ≥ marks a high value that may be exact or a test limit, other limits are often not marked, values filed in µg/mL are converted to µM
[1] = system: Escherichia coli ATCC 25922
[2] = system: Klebsiella pneumoniae ATCC 700603
[3] = system: Staphylococcus aureus ATCC 33591
[4] = system: Pseudomonas aeruginosa ATCC 27853
[5] = system: Acinetobacter baumannii ATCC BAA-1605
[6] = system: Enterococcus faecium ATCC 700221
Candida albicans SC5314 = system: Candida albicans SC5314
[7] = system: Candida albicans ATCC 90028
[8] = system: Candida parapsilosis ATCC 22019
Candida krusei ATCC 6258 = system: Candida krusei ATCC 6258
Enterobacter cloacae = system: Enterobacter cloacae
[9] = system: Acinetobacter baumannii ATCC 15308
Klebsiella pneumoniae = system: Klebsiella pneumoniae
Streptococcus pneumoniae = system: Streptococcus pneumoniae
Staphylococcus aureus = system: Staphylococcus aureus
Citrobacter sp. = system: Citrobacter sp.
[10] = system: Staphylococcus aureus ATCC 25923
[11] = system: Pseudomonas aeruginosa ATCC 15442
[12] = system: Escherichia coli KCTC 1682
[13] = system: Pseudomonas aeruginosa KCTC 1637
[14] = system: Staphylococcus aureus KCTC 1621
[15] = system: Escherichia coli CCARM 1229
[16] = system: Bacillus subtilis KCTC 3068
[17] = system: Acinetobacter baumannii CCARM 12035
[18] = system: Salmonella typhimurium CCARM 8009
[19] = system: Pseudomonas aeruginosa CCARM 2095
[20] = system: Enterococcus faecalis KCTC 2011
[21] = system: Salmonella typhimurium KCTC 1926
[22] = system: Staphylococcus aureus ATCC 29213
[23] = system: Staphylococcus epidermidis RP62A
[24] = system: Staphylococcus aureus ATCC 6538
[25] = system: Bacillus subtilis KCTC 1998
[26] = system: Pseudomonas aeruginosa ATCC 15692

MIC [1]: 186 µM (≈ 275 µg/mL) | MIC [2]: 93 µM (≈ 137 µg/mL) | MIC [3]: ≥ 93 µM | MIC [4]: 93 µM (≈ 137 µg/mL) | MIC [5]: ≥ 46.7 µM | MIC [6]: ≥ 186 µM
SMILES: CC[C@H](C)[C@H](NC(=O)[C@H](CCCN=C(N)N)NC(=O)[C@H](CCCCN)NC(=O)[C@H](Cc1ccccc1)NC(=O)[C@H](CC(C)C)NC(=O)[C@H](CCCCN)NC(=O)[C@@H](N)CCCN=C(N)N)C(=O)N[C@@H](CC(C)C)C(=O)N[C@@H](CCCCN)C(=O)N[C@@H](Cc1ccc(O)cc1)C(=O)N[C@@H](CC(C)C)C(N)=O [RKLFKRILKYL]

MIC [1]: 3.1 µM (≈ 5.62 µg/mL) | MIC [3]: 3.1 µM (≈ 5.62 µg/mL) | MIC [4]: 12.5 µM (≈ 22.7 µg/mL) | MIC [6]: 1.6 µM (≈ 2.9 µg/mL)
SMILES: CC[C@H](C)[C@H](NC(=O)[C@H](CCCCN)NC(=O)[C@H](CCCCN)NC(=O)[C@H](CC(C)C)NC(=O)[C@H](CC(C)C)NC(=O)[C@H](CCCCN)NC(=O)[C@H](CCCCN)NC(=O)[C@@H](NC(=O)[C@@H](NC(=O)[C@H](CC(=O)O)NC(=O)[C@H](Cc1ccccc1)NC(=O)[C@H](CC(C)C)NC(=O)CN)C(C)C)[C@@H](C)CC)C(=O)N[C@@H](CCCCN)C(=O)NCC(=O)N[C@@H](CC(C)C)C(N)=O [GLFDVIKKLLKKIKGL]

MIC (Candida albicans SC5314): 13.6 µM (≈ 32 µg/mL) | MIC [7]: 27.1 µM (≈ 64 µg/mL) | MIC [8]: 13.6 µM (≈ 32 µg/mL) | MIC (Candida krusei ATCC 6258): 6.79 µM (≈ 16 µg/mL)
SMILES: CC[C@H](C)[C@H](NC(=O)CN)C(=O)N[C@@H](Cc1c[nH]c2ccccc12)C(=O)N[C@@H](CCCCN)C(=O)N[C@@H](CCCCN)C(=O)N[C@@H](Cc1c[nH]c2ccccc12)C(=O)N[C@H](C(=O)N[C@@H](CCCCN)C(=O)N[C@@H](CCCCN)C(=O)N[C@@H](Cc1c[nH]c2ccccc12)C(=O)N[C@@H](CC(C)C)C(=O)N[C@@H](CCCCN)C(=O)N[C@@H](CCCCN)C(=O)N[C@@H](CC(C)C)C(=O)N[C@@H](CCCCN)C(=O)N[C@@H](CC(N)=O)C(=O)N[C@@H](CC(C)C)C(=O)N[C@@H](Cc1ccccc1)C(N)=O)[C@@H](C)CC [GIWKKWIKKWLKKLKNLF]

MIC (Enterobacter cloacae): ≥ 130 µM | MIC [9]: ≥ 130 µM | MIC [1]: 130 µM (≈ 250 µg/mL) | MIC (Klebsiella pneumoniae): > 130 µM | MIC (Streptococcus pneumoniae): ≥ 130 µM | MIC (Staphylococcus aureus): 130 µM (≈ 250 µg/mL) | MIC (Citrobacter sp.): ≥ 130 µM | MIC [10]: 65.2 µM (≈ 125 µg/mL) | MIC [11]: ≥ 65.2 µM
SMILES: CC(C)C[C@H](NC(=O)[C@@H](N)CCCN=C(N)N)C(=O)N1CCC[C@H]1C(=O)N[C@@H](Cc1c[nH]c2ccccc12)C(=O)N[C@@H](CCCN=C(N)N)C(=O)N[C@@H](Cc1c[nH]c2ccccc12)C(=O)N1CCC[C@H]1C(=O)N[C@@H](CCCN=C(N)N)C(=O)N[C@@H](CCCN=C(N)N)C(=O)N1CCC[C@H]1C(=O)N[C@@H](Cc1c[nH]c2ccccc12)C(=O)N[C@@H](CCCN=C(N)N)C(=O)N[C@@H](CCCN=C(N)N)C(N)=O [RLPWRWPRRPWRR]

MIC [12]: ≥ 128 µM | MIC [13]: ≥ 128 µM | MIC [14]: ≥ 128 µM | MIC [15]: ≥ 128 µM | MIC [16]: ≥ 128 µM | MIC [17]: ≥ 128 µM | MIC [18]: ≥ 128 µM | MIC [19]: ≥ 128 µM | MIC [20]: ≥ 128 µM | MIC [21]: ≥ 128 µM
SMILES: CC(C)[C@H](NC(=O)[C@H](C)N)C(=O)N[C@@H](C)C(=O)N[C@H](C(=O)N[C@H](C(=O)NCC(=O)N[C@@H](CCC(N)=O)C(=O)N[C@@H](C)C(=O)N[C@@H](C)C(=O)N[C@H](C(=O)N[C@H](C(=O)N[C@H](C(=O)N[C@@H](CCCCN)C(N)=O)C(C)C)C(C)C)[C@@H](C)O)C(C)C)C(C)C [AVAVVGQAATVVK]

MIC [22]: 4540 µM (≈ 6200 µg/mL) | MIC [23]: ≥ 9160 µM | MIC [10]: 9160 µM (≈ 12500 µg/mL) | MIC [11]: ≥ 9160 µM | MIC [24]: 9160 µM (≈ 12500 µg/mL)
SMILES: CC[C@H](C)[C@H](NC(=O)[C@@H](N)CCC(=O)O)C(=O)N[C@@H](CCC(=O)O)C(=O)N[C@@H](CCCCN)C(=O)N[C@@H](Cc1ccccc1)C(=O)N[C@@H](CC(=O)O)C(=O)N[C@@H](CCCCN)C(=O)N[C@@H](CO)C(=O)N[C@@H](CCCCN)C(=O)N[C@@H](CC(C)C)C(=O)N[C@@H](CCCCN)C(=O)O [EIEKFDKSKLK]

MIC (Enterobacter cloacae): ≥ 113 µM | MIC [9]: ≥ 113 µM | MIC [1]: > 113 µM | MIC (Klebsiella pneumoniae): > 113 µM | MIC (Streptococcus pneumoniae): ≥ 113 µM | MIC (Staphylococcus aureus): > 113 µM | MIC (Citrobacter sp.): ≥ 113 µM | MIC [10]: > 113 µM | MIC [11]: ≥ 113 µM
SMILES: CC[C@H](C)[C@H](NC(=O)[C@H](CCSC)NC(=O)[C@H](C)NC(=O)[C@@H]1CCCN1C(=O)[C@@H](NC(=O)[C@H](CCCN=C(N)N)NC(=O)[C@H](CCCCN)NC(=O)[C@@H](NC(=O)[C@H](CC(C)C)NC(=O)CNC(=O)CNC(=O)[C@H](CC(C)C)NC(=O)[C@@H](N)Cc1ccccc1)[C@@H](C)CC)C(C)C)C(=O)N[C@H]1CSSC[C@@H](C(=O)O)NC(=O)[C@H](CCCCN)NC(=O)[C@H](CCCCN)NC(=O)[C@H](CCCN=C(N)N)NC(=O)[C@H](C(C)C)NC(=O)[C@H](C)NC1=O [FLGGLIKRVPAMICAVRKKC]

MIC [22]: 9990 µM (≈ 12500 µg/mL) | MIC [23]: ≥ 4950 µM | MIC [10]: 9990 µM (≈ 12500 µg/mL) | MIC [11]: ≥ 9990 µM | MIC [24]: 9990 µM (≈ 12500 µg/mL)
SMILES: CC(C)C[C@H](NC(=O)[C@H](CCCCN)NC(=O)[C@H](CO)NC(=O)[C@H](CCCCN)NC(=O)[C@H](CC(=O)O)NC(=O)[C@H](Cc1ccccc1)NC(=O)[C@H](CO)NC(=O)[C@H](C)NC(=O)[C@@H](NC(=O)[C@@H](N)CCC(=O)O)C(C)C)C(=O)N[C@@H](CCCCN)C(=O)O [EVASFDKSKLK]

MIC [1]: 2 µM (≈ 4.73 µg/mL) | MIC [25]: 1 µM (≈ 2.37 µg/mL) | MIC [26]: 2 µM (≈ 4.73 µg/mL) | MIC [10]: 8 µM (≈ 18.9 µg/mL)
SMILES: CC[C@H](C)[C@H](NC(=O)[C@H](CCCCN)NC(=O)[C@H](CO)NC(=O)[C@@H]1CCCN1C(=O)[C@H](CC(C)C)NC(=O)[C@H](CCCCN)NC(=O)[C@@H]1CCCN1C(=O)[C@H](CC(C)C)NC(=O)[C@H](CCCN=C(N)N)NC(=O)[C@H](CCCCN)NC(=O)[C@H](Cc1ccccc1)NC(=O)[C@@H](NC(=O)[C@H](CCCCN)NC(=O)[C@H](CCCCN)NC(=O)[C@H](C)N)C(C)C)C(=O)N[C@@H](Cc1c[nH]c2ccccc12)C(=O)N[C@@H](CC(N)=O)C(=O)N[C@@H](Cc1c[nH]c2ccccc12)C(=O)N[C@@H](CCCCN)C(N)=O [AKKVFKRLPKLPSKIWNWK]
